{"source": "patent US20030104079A1", "about": "“Skin tissue regeneration promoters comprising ginsenoside Rb1” (Japan Science and Technology Corporation, Japan, priority 2000, published 2003)", "key": {"open wound of skin": {"system": "open wound of skin", "test": "Open wound (skin defect) healing by intravenous infusion after punch biopsy", "type": "in vivo, Wistar rats", "details": "vs physiological saline", "method": "We have examined whether intravenous administration of ginsenoside Rb1 at low dosages or low doses can promote regeneration and/or reconstruction of skin tissue in diseases with defect of skin tissue (bedsore, skin ulcer, burn, frostbite, radiation injury, open wound, ultraviolet injury, electric injury, etc.). For that purpose, for example, by using male Wistar rats (body weight about 300 g), punch biopsy with diameter 6 mm was performed in the dorsal skin region of animals under inhalation anesthesia to prepare open wound, and the animals were allowed to leave as they were. About 1 hour later, ginsenoside Rb1 (12 μg) dissolved in physiological saline was once administered intravenously, then ginsenoside Rb1 was continuously infused intravenously for 7 days by using an Alza osmotic minipump (12 μg/day).\nAn equal amount of physiological saline was administered intravenously in the control animals, for which the same open wound was made to leave the animals as they were.\nOn day 2 after finishing continuous intravenous administration of ginsenoside Rb1 or physiological saline, the animals were anesthetized with pentobarbital and fixed transcardialy with perfusion of 0.1 M phosphate buffer containing 4% paraformaldehyde. Thereafter, the skin tissue including the open wound was dissected out, post-fixed and embedded in paraffin. […]"}, "[1]": {"system": "cultured nerve cells (neurons)", "details": "same SNP culture system, Japanese Patent Appln. No. Hei 10-365560; cited from earlier work"}, "spinal cord injury": {"system": "spinal cord injury", "details": "continuous intravenous administration 60 pg/day; cited from earlier work"}, "[2]": {"system": "permanent occlusion of the cortical branch of the middle cerebral artery", "details": "infused into the cerebroventricles of cerebral infarcted rats; cited from earlier work"}, "[3]": {"system": "skin epidermal keratinocytes or hornified cells", "details": "extracellular fluid concentration 100 μg/ml; cited from earlier work"}, "[4]": {"details": "intraperitoneally administered; Kaku et al. 1975; cited from earlier work"}}, "data": [{"compound": "CC(C)=CCC[C@](C)(O[C@@H]1O[C@H](CO[C@@H]2O[C@H](CO)[C@@H](O)[C@H](O)[C@H]2O)[C@@H](O)[C@H](O)[C@H]1O)[C@H]1CC[C@]2(C)[C@@H]1[C@H](O)C[C@@H]1[C@@]3(C)CC[C@H](O[C@@H]4O[C@H](CO)[C@@H](O)[C@H](O)[C@H]4O[C@@H]4O[C@H](CO)[C@@H](O)[C@H](O)[C@H]4O)C(C)(C)[C@@H]3CC[C@]12C", "note": "[ginsenoside Rb1]", "values": [{"measurement": "scar or granulation formation in open wound (HE histology, FIG. 2)", "setting": "open wound of skin; 12 μg once then 12 μg/day continuous iv for 7 days after 6 mm punch biopsy", "value": "scar or granulation formation was obviously little"}, {"measurement": "epithelization of open wound (FIG. 2)", "setting": "open wound of skin; 12 μg/day continuous iv for 7 days after 6 mm punch biopsy", "value": "sufficient epithelization occurred"}, {"measurement": "extracellular fluid concentration that inhibits apoptosis or apoptosis-like cell death of nerve cells", "setting": "[1]", "value": "≤ 1", "unit": "ng/mL"}, {"measurement": "standing up of bed-ridden rats with spinal cord injury", "setting": "spinal cord injury", "value": "could stand up bed-ridden rats"}, {"measurement": "cerebral infarction and place navigation disability", "setting": "[2]", "value": "cerebral infarction-reducting effect and place navigation disability-improving effect were observed"}, {"measurement": "division and proliferation of skin epidermal keratinocytes or hornified cells", "setting": "[3]", "value": "can promote division and proliferation of skin epidermal keratinocytes or hornified cells"}, {"measurement": "LD50", "setting": "[4]", "value": 1110, "unit": "mg/kg"}]}]}
